Laboratory results: patent US20240279236A1, “COMPOUNDS AND METHODS OF TREATING TUBERCULOSIS” (Fimbrion Therapeutics, Inc., priority 2021, published 2024)

system: WT Mtb Erdman strain; assay: Microplate Alamar Blue Assay (MABA), Mtb growth inhibition; assay type: cell-based, Mycobacterium tuberculosis; conditions: Mycobacterium tuberculosis, ERDMAN, 168 h, Middlebrook 7H9 media, 7 days at 37° C. in 5% CO2

SMILES	IC50 [µM]
CCc1nc(NCCCc2cccc(N(C)C)c2)c2cc(C)sc2n1 [Example 253, N-(3-(3-(dimethylamino)phenyl)propyl)-2-ethyl-6-methylthieno[2,3-d]pyrimidin-4-amine]	1.1
CCc1nc(NCCCc2ccc3ncccc3c2)c2cc(C)sc2n1 [Example 254, 2-ethyl-6-methyl-N-(3-(quinolin-6-yl)propyl)thieno[2,3-d]pyrimidin-4-amine]	1.5
CCc1nc(NCCCc2cccc(OC(F)(F)F)c2)c2cc(C)sc2n1 [Example 255, 2-ethyl-6-methyl-N-(3-(3-(trifluoromethoxy)phenyl)propyl)thieno [2,3-d]pyrimidin-4-amine]	0.57
CCc1nc(NCCCc2ccc3c(c2)CCO3)c2cc(C)sc2n1 [Example 256, N-(3-(2,3-dihydrobenzofuran-5-yl)propyl)-2-ethyl-6-methylthieno[2,3-d]pyrimidin-4-amine]	0.29
CCc1nc(NCCCc2ccc(Cl)cc2)c2cc(C)sc2n1 [Example 257, N-(3-(4-chlorophenyl)propyl)-2-ethyl-6-methylthieno[2,3-d]pyrimidin-4-amine]	0.14
CCc1nc(NCCCc2ccc3ccccc3c2)c2cc(C)sc2n1 [Example 258, 2-ethyl-6-methyl-N-(3-(naphthalen-2-yl)propyl)thieno[2,3-d]pyrimidin-4-amine]	0.19
CCc1nc(NCCCc2cc(F)cc(C(F)(F)F)c2)c2cc(C)sc2n1 [Example 259, 2-ethyl-N-(3-(3-fluoro-5-(trifluoromethyl)phenyl)propyl)-6-methylthieno[2,3-d]pyrimidin-4-amine]	0.56
CCc1nc(NCCCc2ccc(OC)c(F)c2)c2cc(C)sc2n1 [Example 260, 2-ethyl-N-(3-(3-fluoro-4-methoxyphenyl)propyl)-6-methylthieno[2,3-d]pyrimidin-4-amine]	0.2
CCc1nc(NCCCc2cc3ccccc3s2)c2cc(C)sc2n1 [Example 261, N-(3-(benzo[b]thiophen-2-yl)propyl)-2-ethyl-6-methylthieno[2,3-d]pyrimidin-4-amine]	0.28
Cc1cc2c(NCCCc3ccc(-c4ccc(OC(F)(F)F)cc4)nc3)nc(C(F)(F)F)nc2s1 [Example 262, 6-methyl-N-(3-(6-(4-(trifluoromethoxy)phenyl)pyridin-3-yl)propyl)-2-(trifluoromethyl) thieno[2,3-d]pyrimidin-4-amine;]	0.47
Cc1cc2c(NCCCc3ccc(-c4ccc(OC(F)(F)F)cc4)cc3)nc(-c3ccon3)nc2s1 [Example 263, 2-(isoxazol-3-yl)-6-methyl-N-(3-(4′-(trifluoromethoxy)-[1,1′-biphenyl]-4-yl)propyl)thieno [2,3-d]pyrimidin-4-amine]	0.013
Cc1cc(-c2nc(NCCCc3ccc(-c4ccc(OC(F)(F)F)cc4)cc3)c3cc(C)sc3n2)no1 [Example 264, 6-methyl-2-(5-methylisoxazol-3-yl)-N-(3-(4′-(trifluoromethoxy)-[1,1′-biphenyl]-4-yl)propyl)thieno [2,3-d]pyrimidin-4-amine]	0.04
CCc1nc(NCCCc2ccc(-c3ccccc3)cc2)c2cc(C)sc2n1 [Example 265, N-(3-([1,1′-biphenyl]-4-yl)propyl)-2-ethyl-6-methylthieno[2,3-d]pyrimidin-4-amine]	0.15
CCc1nc(NCCCc2ccc(-c3ccc(OC(F)(F)F)cc3)cc2)c2cc(C)sc2n1 [Example 266, 2-ethyl-6-methyl-N-(3-(4′-(trifluoromethoxy)-[1,1′-biphenyl]-4-yl)propyl)thieno [2,3-d]pyrimidin-4-amine]	0.049
Cc1cc2c(NCCCc3ccc(-c4ccc(OC(F)(F)F)cc4)cc3)nc(C(F)(F)F)nc2s1 [Example 267, 6-methyl-N-(3-(4′-(trifluoromethoxy)-[1,1′-biphenyl]-4-yl)propyl)-2-(trifluoromethyl)-thieno[2,3-d]pyrimidin-4-amine]	0.3
Cc1cc2c(NCCCc3ccc(-c4ccccc4)cc3)nc(C(F)(F)F)nc2s1 [Example 268, N-(3-([1,1′-biphenyl]-4-yl)propyl)-6-methyl-2-(trifluoromethyl) thieno[2,3-d]pyrimidin-4-amine]	1.2
CCc1nc(NCCCc2cccc(-c3ccc(OC(F)(F)F)cc3)c2)c2cc(C)sc2n1 [Example 269, 2-ethyl-6-methyl-N-(3-(4′-(trifluoromethoxy)-[1,1′-biphenyl]-3-yl)propyl)thieno [2,3-d]pyrimidin-4-amine]	1.1
CCc1nc(NCCCc2cccc(-c3ccccc3)c2)c2cc(C)sc2n1 [Example 270, N-(3-([1,1′-biphenyl]-3-yl)propyl)-2-ethyl-6-methylthieno[2,3-d]pyrimidin-4-amine]	0.52
CCc1nc(NCCCc2ccc(-c3ccncc3)cc2)c2cc(C)sc2n1 [Example 271, 2-ethyl-6-methyl-N-(3-(4-(pyridin-4-yl)phenyl)propyl) thieno[2,3-d]pyrimidin-4-amine]	0.35

SMILES	IC50 [µM]
CCc1nc(NCCCc2ccc(-c3ccc(S(C)(=O)=O)cc3)cc2)c2cc(C)sc2n1 [Example 272, 2-ethyl-6-methyl-N-(3-(4′-(methylsulfonyl)-[1,1′-biphenyl]-4-yl)propyl)thieno [2,3-d]pyrimidin-4-amine]	0.27
CCc1nc(NCCCc2ccc(-c3ccc(Cl)cc3)cc2)c2cc(C)sc2n1 [Example 273, N-(3-(4′-chloro-[1,1′-biphenyl]-4-yl)propyl)-2-ethyl-6-methylthieno[2,3-d]pyrimidin-4-amine]	0.038
CCc1nc(NCCCc2ccc(-c3ccc(OC)cc3)cc2)c2cc(C)sc2n1 [Example 274, 2-ethyl-N-(3-(4′-methoxy-[1,1′-biphenyl]-4-yl)propyl)-6-methylthieno[2,3-d]pyrimidin-4-amine]	0.076
CCc1nc(NCCCc2ccc(-c3cccnc3)cc2)c2cc(C)sc2n1 [Example 275, 2-ethyl-6-methyl-N-(3-(4-(pyridin-3-yl)phenyl)propyl) thieno[2,3-d]pyrimidin-4-amine]	0.18
CCc1nc(NCCCc2ccc(-c3ccc(F)c(F)c3)cc2)c2cc(C)sc2n1 [Example 276, N-(3-(3′,4′-difluoro-[1,1′-biphenyl]-4-yl)propyl)-2-ethyl-6-methylthieno[2,3-d]pyrimidin-4-amine]	0.93
CCc1nc(NCCCc2ccc(-c3ccc(NS(C)(=O)=O)cc3)cc2)c2cc(C)sc2n1 [Example 277, N-(4′-(3-((2-ethyl-6-methylthieno[2,3-d]pyrimidin-4-yl)amino)propyl)-[1,1′-biphenyl]-4-yl)methanesul-fonamide]	0.63
CCc1nc(NCCCc2ccc(-c3ccc(=O)[nH]c3)cc2)c2cc(C)sc2n1 [Example 278, 5-(4-(3-((2-ethyl-6-methylthieno[2,3-d]pyrimidin-4-yl)amino)propyl)phenyl)pyridin-2(1H)-one]	0.71
CCc1nc(NCCCc2ccc(-c3ccc(NC(C)=O)cc3)cc2)c2cc(C)sc2n1 [Example 279, N-(4′-(3-((2-ethyl-6-methylthieno[2,3-d]pyrimidin-4-yl)amino)propyl)-[1,1′-biphenyl]-4-yl)acetamide]	1.1
CCc1nc(NCCCc2ccc(-c3cccc(OC(F)(F)F)c3)cc2)c2cc(C)sc2n1 [Example 280]	0.14
CCc1nc(NCCCc2ccc(-c3ccc(Cl)c(Cl)c3)cc2)c2cc(C)sc2n1 [Example 281, N-(3-(3′,4′-dichloro-[1,1′-biphenyl]-4-yl)propyl)-2-ethyl-6-methylthieno[2,3-d]pyrimidin-4-amine]	0.044
Cc1cc2c(NCCCc3ccc(-c4ccc(Cl)cc4)cc3)nc(C(F)(F)F)nc2s1 [Example 282, N-(3-(4′-chloro-[1,1′-biphenyl]-4-yl)propyl)-6-methyl-2-(trifluoromethyl) thieno[2,3-d]pyrimidin-4-amine]	0.13
CCc1nc(NCCCc2ccc(-c3cccc(S(C)(=O)=O)c3)cc2)c2cc(C)sc2n1 [Example 283, 2-ethyl-6-methyl-N-(3-(3′-(methylsulfonyl)-[1,1′-biphenyl]-4-yl)propyl)thieno [2,3-d]pyrimidin-4-amine]	3.2
CCc1nc(NCCCc2ccc(-c3cccc(C(=O)NC)c3)cc2)c2cc(C)sc2n1 [Example 284, 4′-(3-((2-ethyl-6-methylthieno[2,3-d]pyrimidin-4-yl)amino)propyl) N-methyl-[1,1′-biphenyl]-3-carboxamide]	2.9
Cc1cc2c(NCCCc3ccc(-c4ccc(OC(F)(F)F)cc4)cc3)nc(-c3ccc(OC(F)(F)F)cc3)nc2s1 [Example 285, 6-methyl-N-(3-(4′-(trifluoromethoxy)-[1,1′-biphenyl]-4-yl)propyl)-2-(4-(trifluoromethoxy)phenyl)thieno [2,3-d]pyrimidin-4-amine]	> 10
Cc1cc2c(NCCCc3ccc(-c4ccc(OC(F)(F)F)cc4)cc3)nc(-c3ccccn3)nc2s1 [Example 286, 6-methyl-2-(pyridin-2-yl)-N-(3-(4′-(trifluoromethoxy)-[1,1′-biphenyl]-4-yl)propyl)thieno [2,3-d]pyrimidin-4-amine]	0.13
Cc1cc2c(NCCCc3ccc(-c4ccc(F)c(F)c4)cc3)nc(C(F)(F)F)nc2s1 [Example 287, N-(3-(3′,4′-difluoro-[1,1′-biphenyl]-4-yl)propyl)-6-methyl-2-(trifluoromethyl) thieno[2,3-d]pyrimidin-4-amine]	0.19
COc1ccc(-c2ccc(CCCNc3nc(C(F)(F)F)nc4sc(C)cc34)cc2)cc1 [Example 288, N-(3-(4′-methoxy-[1,1′-biphenyl]-4-yl)propyl)-6-methyl-2-(trifluoromethyl) thieno[2,3-d]pyrimidin-4-amine]	0.31
CSc1nc(NCCCc2ccc(-c3ccc(OC(F)(F)F)cc3)cc2)c2cc(C)sc2n1 [Example 289, 6-methyl-2-(methylthio)-N-(3-(4′-(trifluoromethoxy)-[1,1′-biphenyl]-4-yl)propyl)thieno [2,3-d]pyrimidin-4-amine]	0.008
Cc1cc2c(NCCCc3ccc(-c4ccc(Cl)c(Cl)c4)cc3)nc(C(F)(F)F)nc2s1 [Example 290, N-(3-(3′,4′-dichloro-[1,1′-biphenyl]-4-yl)propyl)-6-methyl-2-(trifluoromethyl) thieno[2,3-d]pyrimidin-4-amine]	0.39
